From PubChem BioAssay AID179 (DTP/NCI, 2004) come the findings set out here.

Activity calls are given as the source filed them.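 Rule for the calls: active = compounds giving half or more protection of infected cells from virus-caused growth loss, again on retest; inactive = the rest.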

For orientation: EC50 means the concentration needed to bring the measured effect to its halfway point. Usually IC50 stands for the concentration needed to halve the response being measured.

In this experiment the test system is CEM cells HIV-1 protection, formazan growth assay. Briefly: NCI AIDS Antiviral Assay. The following applies: for IC50: measured here: growth of uninfected CEM cells. The gist of the method:
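CEM (human) cells, HIV-1 infected vs uninfected, 5-point dosing, formazan growth read-out. Retest threshold 50% protection.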

With `CCOC(=O)CCCc1cc[c]([Sb](=[O])([OH])[OH])cc1`, the EC50 was greater than 200 µM and the half-inhibitory concentration (IC50) was 72.4 µM.
On the same counts, the results for `O=C(/C=C/c1ccc(OCCSCCCCCCCCCCSCCOc2ccc(/C=C/C(=O)c3ccc(Cl)cc3)cc2)cc1)c1ccc(Cl)cc1` are greater than 12.9 µM and 12 µM.
Turning to `CC(=O)N1C(=O)/C(=C\C(=O)c2ccc([N+](=O)[O-])cc2)c2ccccc21`, the EC50 was greater than 200 µM and the IC50 amounted to 2.82 µM.
With `Oc1cc(C2OCCCO2)cc(O)c1O`, the EC50 was greater than 229 µM and the half-maximal inhibitory concentration (IC50) stood at 191 µM.
In the case of `O=C(N/C(=C\c1cc(Cl)ccc1Cl)c1nc2ccccc2[nH]1)c1ccccc1`, the result was inactive.
Same read-out and setting: for `CC1(C)OC(=O)NC1=O` the value was “inactive”.
With `COC(=O)C(Cc1ccccc1)NC(=O)c1ccc(CNC(=S)NCc2cccc(CNC(=S)NCc3ccccc3)c2)cc1` (stereo unspecified), the EC50 is greater than 200 µM and the IC50 worked out at 148 µM.
On the same counts, the results for `C[C@H](NC(=O)c1ccccc1SC(=O)CCCC[n+]1ccccc1)C(N)=O` are 0.933 µM and greater than 100 µM.
On the same counts, the results for `N#CC1CCCCCCCCCCC(=O)N(CCCl)C1=O` (stereo unspecified) are greater than 60.3 µM and greater than 60.3 µM.
As to `CCOC(=O)C1(c2ccc(O)c(O)c2)CCN(C)CC1`, the EC50 was greater than 794 µM and the 50% inhibitory concentration (IC50) is 380 µM.
Turning to `CCC1=C(C)c2cc3[n-]c(cc4nc(cc5[n-]c(cc1n2)c(C)c5CCC(=O)OC)C(CCC(=O)OC)=C4C)c(C)c3CC.[Cu+2]`, the outcome was inactive.
For `NC(=O)C1C2CC3C(NC(=O)C31)C2O` (stereo unspecified), the EC50 is greater than 200 µM and the half-maximal inhibitory concentration (IC50) is greater than 200 µM.
Take `COc1cccc(C2c3cc4c(cc3OC(N3CCCC3)C2c2ccccc2)OCO4)c1O` (stereo unspecified): the EC50 was greater than 200 µM and the 50% inhibitory concentration (IC50) is 3.16 µM.
For `Cn1nc(S(N)(=O)=O)s/c1=N/C(N)=S`, the EC50 is greater than 200 µM and the IC50 was greater than 200 µM.
Take `CCOC(=O)C1=C(OC(OCC)C(CC)[Se]c2ccccc2)CCC1` (stereo unspecified): the EC50 was greater than 45.7 µM and the half-maximal inhibitory concentration (IC50) is greater than 45.7 µM.
As to `Cc1cc(N=Nc2c(O)c3ccccc3[nH]c2=O)ccc1N=Nc1ccc(C(=O)N(C)C)cc1`, the EC50 was greater than 200 µM and the 50% inhibitory concentration (IC50) turned out to be 151 µM.
For `Cc1ccc2nc(NC(=O)C(=O)CC(=O)c3cccc4ccccc34)sc2c1`, in that order: greater than 33.9 µM and greater than 33.9 µM.
Consider `COC(=O)N1CCc2c(nc(N(C)CCO)[nH]c2=O)C1`, for which the EC50 is greater than 891 µM and the half-maximal inhibitory concentration (IC50) worked out at 708 µM.
Consider `O=[N+]([O-])c1ccc2c([N+](=O)[O-])ccc3c2c1CC3`, for which the EC50 is greater than 200 µM and the IC50 is 21.9 µM.
For `COc1ccc(-c2c(O)c3ccc(OC)cc3oc2=O)cc1`, in that order: greater than 200 µM and 155 µM.
In the case of `CCCCCCCCCCCCCCCC(=O)Nc1ccn(C2CCC(COP(=O)(O)O)O2)c(=O)n1` (stereo unspecified), the concentration giving a half-maximal response (EC50) was 1.58 µM and the 50% inhibitory concentration (IC50) was found to be 50.1 µM.
Consider `CCOC(=O)N1CC2(C)C=CC1C(C(=O)OC)C2` (stereo unspecified), for which the EC50 is greater than 200 µM and the IC50 is greater than 200 µM.
For `CN1C(=O)C(O)CC1c1cccc(F)c1` (stereo unspecified), the EC50 is greater than 200 µM and the half-inhibitory concentration (IC50) is greater than 200 µM.
In the case of `CC1=CC2CC(C)=C(CC[C@]3(C)CC[C@H]([C@@H](C)C(=O)O)OO3)C(C)(C)C2CC1` (stereo partly specified), the outcome was inactive.
For `C[C@H](CCC(=O)O[C@@H]1CC[C@@]2(C)C(CC[C@H]3[C@@H]4CC[C@H]([C@H](C)CCc5nc6ccccc6[nH]5)[C@@]4(C)CC[C@@H]32)C1)[C@H]1CC[C@H]2[C@@H]3CCC4C[C@H](O)CC[C@]4(C)[C@H]3CC[C@]12C` (stereo partly specified), the EC50 was greater than 100 µM and the half-inhibitory concentration (IC50) is greater than 100 µM.
Take `Cc1cn(C2CC(N=[N+]=[N-])C(COC(=O)CCCCCCCCCCOc3ccc(I)cc3)O2)c(=O)[nH]c1=O` (stereo unspecified): the 50% effective concentration (EC50) is 0.117 µM and the half-inhibitory concentration (IC50) worked out at 17.8 µM.
Turning to `N#C/C(=C/n1c(=S)[nH]c2ccccc21)C(N)=O`, the EC50 is greater than 200 µM and the IC50 is greater than 200 µM.
Regarding `CCOC(=O)NC(=O)c1cn(CCOC(=O)NCCCCCCNC(=O)OCCn2cc(C(=O)NC(=O)OCC)c(=O)[nH]c2=O)c(=O)[nH]c1=O`, the result was inactive.
On to `O=C1NCC2(CCN(CCCC3(c4ccc(F)cc4)OCCO3)CC2)N1c1ccccc1`, for which the EC50 was greater than 200 µM and the IC50 is greater than 200 µM.
Turning to `O=C1c2ccccc2C(=O)N1n1c(Cc2ccc(Cl)cc2)n[nH]c1=O`, the EC50 was greater than 200 µM and the IC50 is greater than 200 µM.
For `NNC(=O)C(=O)N/N=C(\CCC(=O)Nc1ccc(Cl)cc1)Cc1nc2ccccc2s1`, the EC50 is greater than 77.6 µM and the IC50 came to 14.5 µM.
On the same counts, the results for `O=C(O)/C(Cl)=C(\Cl)C(=O)c1ccccc1` are greater than 1020 µM and greater than 1020 µM.
For `NS(=O)(=O)c1nnc(NC(=O)c2ccccc2)s1`, in that order: greater than 200 µM and greater than 200 µM.
With `NC(CCCCNC(=O)C(Cc1ccccc1)NC(=O)OCc1ccccc1)C(=O)NC(CCCCNC(=O)C(Cc1ccccc1)NC(=O)OCc1ccccc1)C(=O)NC(CCCCNC(=O)C(Cc1ccccc1)NC(=O)OCc1ccccc1)C(=O)NC(CCCCNC(=O)C(Cc1ccccc1)NC(=O)OCc1ccccc1)C(=O)NC(CCCCNC(=O)C(Cc1ccccc1)NC(=O)OCc1ccccc1)C(=O)NC(CCCCNC(=O)C(Cc1ccccc1)NC(=O)OCc1ccccc1)C(=O)O` (stereo unspecified), the EC50 is greater than 50.1 µM and the half-maximal inhibitory concentration (IC50) is greater than 50.1 µM.
For the compound `COc1ccc2oc(=N)c(C(=O)NCc3ccccc3)cc2c1`, the EC50 was greater than 200 µM and the IC50 was 17.8 µM.
On to `Cn1c2cc(O)cc(O)c2c(=O)c2c([N+](=O)[O-])cccc21`, for which the EC50 is greater than 141 µM and the concentration for half-maximal inhibition (IC50) is greater than 141 µM.
`CCCc1cc(=O)oc2c3c(c4c(c12)OC(C)(C)[C@@H](OC(=O)c1ccc(Br)cc1)[C@H]4OC(=O)c1ccc(Br)cc1)O[C@@H](C)[C@H](C)[C@@H]3OC(=O)c1ccc(Br)cc1`: the EC50 was greater than 200 µM and the IC50 is greater than 200 µM.
As for `CC(NC(=O)c1ccccc1)C(=O)N(Cc1ccccc1)Cc1ccccc1` (stereo unspecified), the EC50 is greater than 97.7 µM and the IC50 is greater than 97.7 µM.
As to `Nc1ncnc2c1[nH]c(=O)n2-c1ccccc1`, the EC50 was greater than 200 µM and the IC50 was found to be 178 µM.
In the case of `CSC1C=C(C(C)C)CCC1(C)SC` (stereo unspecified), the EC50 was greater than 200 µM and the half-maximal inhibitory concentration (IC50) stood at 39.8 µM.
In the case of `Cc1cc(S(=O)(=O)N=C2N(Cc3ccccc3)CCN2Cc2ccccc2)c(S)cc1Cl`, the EC50 is greater than 200 µM and the IC50 was greater than 200 µM.
Consider `N#CC(c1ccccc1)(c1ccccc1)[C@@H](c1ccccc1)[C@H](Cc1ccccc1)NS(=O)(=O)c1ccccc1`, for which the EC50 was greater than 200 µM and the IC50 was greater than 200 µM.
As to `O=C(O)c1ccc(-c2ccc(-c3cc(=S)sc(=O)[nH]3)cc2)cc1`, the EC50 was greater than 263 µM and the IC50 is 89.1 µM.
Regarding `O=c1cc(C(F)(F)F)[nH]c2c3ncccc3c3nc4ccccc4nc3c12`, the EC50 is 0.214 µM and the concentration for half-maximal inhibition (IC50) was found to be 2.82 µM.
For `CCN(CC)CCN(C(=Nc1ccccc1)N1CCCCC1)c1ccccc1`, in that order: greater than 200 µM and 1.29 µM.
For `CCC1(O)C(=O)OCc2c1cc1n(c2=O)Cc2cc3cc(N)ccc3nc2-1` (stereo unspecified), the EC50 is greater than 0.1 µM and the IC50 is 0.0794 µM.
For `CC(=O)N1N=C(c2c(O)ccc3ccccc23)CC1C(=O)c1ccco1` (stereo unspecified), in that order: greater than 200 µM and 35.5 µM.
Take `Nn1nc2ccccc2n1`: the EC50 is greater than 1860 µM and the IC50 is greater than 1860 µM.
Regarding `O=C(Nc1ccccc1C(=O)O)C(=Cc1ccccc1O)NC(=O)c1ccccc1`, the EC50 was greater than 200 µM and the IC50 is greater than 200 µM.
Turning to `COC(=O)C(C(=O)C(=O)Nc1ccc([N+](=O)[O-])cc1)c1nc2ccc([N+](=O)[O-])cc2[nH]c1=O` (stereo unspecified), the EC50 is greater than 57.5 µM and the IC50 was greater than 57.5 µM.
For `O=C(OCc1ccccc1)C(Cc1ccccc1)N(Cc1ccccc1)Cc1ccccc1` (stereo unspecified), the EC50 is greater than 200 µM and the 50% inhibitory concentration (IC50) is greater than 200 µM.
`CN(C)NC(=O)/C(=C/c1ccc(Cl)cc1)NC(=O)c1ccccc1`: the EC50 was greater than 145 µM and the IC50 is greater than 145 µM.
As to `N#Cc1nc(-c2ccsc2)oc1N`, the EC50 was greater than 200 µM and the IC50 was greater than 200 µM.
Regarding `O=C1CN(c2cccc(C(F)(F)F)c2)C(=O)CN1CCN1CC(=O)N(c2cccc(C(F)(F)F)c2)CC1=O`, the EC50 is greater than 200 µM and the IC50 was greater than 200 µM.
For `Nc1cc([N+](=O)[O-])ccc1N1C(=O)CCCC1=O`, the EC50 is greater than 200 µM and the IC50 is greater than 200 µM.
As for `Cc1cc(C)nc(NS(=O)(=O)c2ccc(Nc3c4ccccc4nc4c(C(=O)Nc5ccc(S(N)(=O)=O)cc5)cccc34)cc2)n1`, the EC50 was greater than 145 µM and the half-inhibitory concentration (IC50) is greater than 145 µM.
As to `C/C(=N\NC(N)=O)C(CN1CCOCC1)C(c1ccccc1)c1c(O)c2ccccc2oc1=O` (stereo unspecified), the EC50 was greater than 81.3 µM and the IC50 is 67.6 µM.
For the compound `Cc1nc(C(N)=S)sc1C(=O)CC(=O)C(=O)Nc1c(C(C)C)cccc1C(C)C`, the EC50 is greater than 302 µM and the IC50 was found to be 30.9 µM.
Regarding `O=S(=O)(/N=S(/Nc1ccccc1)C(Cl)Cl)c1ccccc1` (stereo unspecified), the EC50 is greater than 200 µM and the IC50 was greater than 200 µM.
For `NC(=O)N/N=C1\CCCCc2ccccc21`, the EC50 was greater than 200 µM and the IC50 is greater than 200 µM.
For `Cn1cc(NC(=O)c2cc(NC(=O)CCCCCC(=O)Nc3cc(C(=O)Nc4cc(C(=O)NCCC(=N)N)n(C)c4)n(C)c3)cn2C)cc1C(=O)NCCC(=N)N`, the EC50 was 53.7 µM and the IC50 stood at 67.6 µM.
On the same counts, the results for `CN(C)c1ccc(/C=C/c2ccnc3ccccc23)cc1` are greater than 200 µM and 10.7 µM.
For `Clc1ccc(NN(c2ccccc2)c2ccc(Cl)cc2)cc1`, in that order: greater than 200 µM and 115 µM.
Take `O=C1CC(O)c2c(Cl)sc(Cl)c21` (stereo unspecified): the EC50 is greater than 200 µM and the IC50 came to 5.25 µM.
For `C[N+](C)([O-])CCCNc1ccnc2cccc([N+](=O)[O-])c12`, in that order: greater than 200 µM and 27.5 µM.
Consider `NC(=S)N1N=C2CCCCCC[C@@H]2[C@H]1c1ccccc1`, for which the result was inactive.
